Measured values reported in patent US12503475B2 (Centessa Pharmaceuticals (UK) Limited, priority 2020, dated 2025).

Target: T1, human orexin type 2 receptor (hOX2R) (Homo sapiens, UniProt O43614)
T1 construct: expressed in transfected cells
T1 sequence (O43614 1-444): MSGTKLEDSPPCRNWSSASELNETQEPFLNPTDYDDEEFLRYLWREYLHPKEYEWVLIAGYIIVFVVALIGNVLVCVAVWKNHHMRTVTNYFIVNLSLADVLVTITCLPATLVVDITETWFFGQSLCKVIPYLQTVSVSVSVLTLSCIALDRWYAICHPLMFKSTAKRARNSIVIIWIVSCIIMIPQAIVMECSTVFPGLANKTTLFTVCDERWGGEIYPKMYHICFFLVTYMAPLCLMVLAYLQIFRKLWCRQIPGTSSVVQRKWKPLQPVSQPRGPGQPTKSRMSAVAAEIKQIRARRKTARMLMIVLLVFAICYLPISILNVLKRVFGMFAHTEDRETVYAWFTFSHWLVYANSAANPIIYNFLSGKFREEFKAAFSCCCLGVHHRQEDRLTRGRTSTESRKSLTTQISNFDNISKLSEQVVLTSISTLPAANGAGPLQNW
Test: Measurement of orexin type 2 receptor agonist activity (FLIPR calcium fluorescence)
Format: cell-based
Conditions: CHO cells expressing hOX2R, FLIPR calcium fluorescence; for EC50: read-out: hOx2 pEC50 (converted); for Emax: CHO, read-out: hOx2 Emax (%)
Method in brief: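 Agonism was read as fluorescence in cells stably expressing human OX2R. E. is the response at 10 μM relative to orexin A as full agonist (100%).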

EC50 | Emax | hOx2 Emax (%) | SMILES
1 to 10 nM | 90 to 100% |  | COC[C@@H](O)C(=O)N1CC2(CC2)[C@H](NS(=O)(=O)CF)[C@@H]1Cc1cccc(-c2ccccc2)c1F [Compound 372, 1-fluoro-N-((6S,7S)-6-((2-fluoro-[1,1′-biphenyl]-3-yl)methyl)-5-((R)-2-hydroxy-3-methoxypropanoyl)-5-azaspiro[2.4]heptan-7-yl)methanesulfonamide]
10 to 100 nM | 90 to 100% |  | CS(=O)(=O)N[C@@H]1[C@H](Cc2cccc(-c3cccc(F)c3)c2)N(C(=O)[C@H]2CCO2)CC12CC2 [Compound 305]
1 to 10 nM | 90 to 100% |  | CNS(=O)(=O)N[C@@H]1[C@H](Cc2cccc(-c3ccccc3)c2)N(C(=O)[C@H]2CCO2)CC12CC2 [Compound 71]
0.0794 to 1 nM | 90 to 100% |  | O=C(N1CC2(CC2)C(NS(=O)(=O)CF)C1Cc1cccc(-c2ccccc2)c1F)C1(O)CCC1 (racemic) [Compound 108, 1-fluoro-N-(6-((2-fluoro-[1,1′-biphenyl]-3-yl)methyl)-5-(1-hydroxycyclobutane-1-carbonyl)-5-azaspiro[2.4]heptan-7-yl)methanesulfonamide]
0.0794 to 1 nM | 90 to 100% |  | C[C@@H](F)C(=O)N1CC2(CC2)[C@H](NS(=O)(=O)CF)[C@@H]1Cc1cc(F)cc(-c2cc(F)cc(F)c2)c1F [Compound 414, 1-fluoro-N-((6S,7S)-5-((R)-2-fluoropropanoyl)-6-((2,3′,5,5′-tetrafluoro-[1,1′-biphenyl]-3-yl)methyl)-5-azaspiro[2.4]heptan-7-yl)methanesulfonamide]
1 to 10 nM | 90 to 100% |  | O=C([C@H]1C[C@H](F)C1)N1CC2(CC2)[C@H](NS(=O)(=O)CF)[C@@H]1Cc1cccc(-c2ccccc2)c1F [Compound 188]
1 to 10 nM | 90 to 100% |  | COC1CN(C(=O)N2CC3(CC3)[C@H](NS(=O)(=O)CF)[C@@H]2Cc2cccc(-c3cc(F)cc(F)c3)c2F)C1 [Compound 402, 1-fluoro-N-((6S,7S)-5-(3-methoxyazetidine-1-carbonyl)-6-((2,3′,5′-trifluoro-[1,1′-biphenyl]-3-yl)methyl)-5-azaspiro[2.4]heptan-7-yl)methanesulfonamide]
0.0794 to 1 nM | 90 to 100% |  | C[C@H](F)C(=O)N1CC2(CC2)[C@H](NS(=O)(=O)C(F)F)[C@@H]1Cc1cccc(-c2ccccc2)c1F [Compound 160, 1,1-difluoro-N-((6S,7S)-6-((2-fluoro-[1,1′-biphenyl]-3-yl)methyl)-5-((S)-2-fluoropropanoyl)-5-azaspiro[2.4]heptan-7-yl)methanesulfonamide]
1 to 10 nM | 90 to 100% |  | CC1CN(C(=O)N2CC3(CC3)C(NS(C)(=O)=O)C2Cc2cccc(-c3ccccc3)c2)C1 (racemic) [Compound 57, N-(6-([1,1′-biphenyl]-3-ylmethyl)-5-(3-methylazetidine-1-carbonyl)-5-azaspiro[2.4]heptan-7-yl)methanesulfonamide]
10 to 100 nM | 90 to 100% |  | CS(=O)(=O)N[C@H]1[C@@H](Cc2cccc(-c3cc(F)cc(F)c3)c2F)N(C(=O)N2CCC2)CC12CC2 [Compound 31, N-((6R,7R)-5-(azetidine-1-carbonyl)-6-((2,3′,5′-trifluoro-[1,1′-biphenyl]-3-yl)methyl)-5-azaspiro[2.4]heptan-7-yl)methanesulfonamide]
100 to 1000 nM | 70 to 80% |  | CCS(=O)(=O)NC1C(Cc2cccc(-c3ccccc3)c2)N(C(=O)OC)CC12CC2 (racemic) [Compound 6, methyl 6-([1,1′-biphenyl]-3-ylmethyl)-7-(ethylsulfonamido)-5-azaspiro[2.4]heptane-5-carboxylate]
1 to 10 nM | 90 to 100% |  | [2H]c1c([2H])c([2H])c(-c2cccc(C[C@H]3[C@@H](NS(=O)(=O)CF)C4(CC4)CN3C(=O)[C@H]3CCO3)c2F)c([2H])c1[2H] [Compound 365, 1-fluoro-N-((6S,7S)-6-((2-fluoro-[1,1′-biphenyl]-3-yl-2′,3′,4′,5′,6′-d5)methyl)-5-((R)-oxetane-2-carbonyl)-5-azaspiro[2.4]heptan-7-yl)methanesulfonamide]
1 to 10 nM | 90 to 100% |  | O=C([C@H]1CCO1)N1CC2(CC2)[C@H](NS(=O)(=O)C2CC2)[C@@H]1Cc1cc(F)cc(-c2ccccc2)c1F [Compound 349, N-((6S,7S)-6-((2,5-difluoro-[1,1′-biphenyl]-3-yl)methyl)-5-((R)-oxetane-2-carbonyl)-5-azaspiro[2.4]heptan-7-yl)cyclopropanesulfonamide]
1 to 10 nM | 90 to 100% |  | CC(C#N)C(=O)N1CC2(CC2)[C@H](NS(C)(=O)=O)[C@@H]1Cc1cccc(-c2ccccc2)c1F (stereo partly drawn) [Compound 358, N-((6S,7S)-5-(2-cyanopropanoyl)-6-((2-fluoro-[1,1′-biphenyl]-3-yl)methyl)-5-azaspiro[2.4]heptan-7-yl)methanesulfonamide]
100 to 1000 nM |  | C (Emax ranging between 70 and 80) | CC(F)C(=O)N1CC2(CC2)C(NS(C)(=O)=O)C1Cc1cccc(-c2ccccc2)c1 (single isomer, unassigned) [Compound 2, N-(6-([1,1′-biphenyl]-3-ylmethyl)-5-(2-fluoropropanoyl)-5-azaspiro[2.4]heptan-7-yl)methanesulfonamide]
10 to 100 nM | 90 to 100% |  | COCCOCCS(=O)(=O)N[C@@H]1[C@H](Cc2cccc(-c3ccccc3)c2)N(C(=O)[C@H]2CCO2)CC12CC2 [Compound 74, N-((6S,7S)-6-([1,1′-biphenyl]-3-ylmethyl)-5-((R)-oxetane-2-carbonyl)-5-azaspiro[2.4]heptan-7-yl)-2-(2-methoxyethoxy)ethane-1-sulfonamide]
10 to 100 nM | 90 to 100% |  | CC(C)C(=O)N1CC2(CC2)[C@H](NS(=O)(=O)N(C)C)[C@@H]1Cc1cccc(-c2ccccc2)c1 (racemic) [Compound 304]
0.0794 to 1 nM | 90 to 100% |  | O=C(NCC(F)F)N1CC2(CC2)[C@H](NS(=O)(=O)CF)[C@@H]1Cc1cccc(-c2ccccc2)c1F [Compound 187, (6S,7S)-N-(2,2-difluoroethyl)-6-((2-fluoro-[1,1′-biphenyl]-3-yl)methyl)-7-((fluoromethyl)sulfonamido)-5-azaspiro[2.4]heptane-5-carboxamide]
1 to 10 nM | 90 to 100% |  | O=C([C@H](O)CF)N1CC2(CC2)[C@H](NS(=O)(=O)C(F)F)[C@@H]1Cc1cc(F)cc(-c2ccccc2)c1F [Compound 390, N-((6S,7S)-6-((2,5-difluoro-[1,1′-biphenyl]-3-yl)methyl)-5-((S)-3-fluoro-2-hydroxypropanoyl)-5-azaspiro[2.4]heptan-7-yl)-1,1-difluoromethanesulfonamide]
0.0794 to 1 nM | 90 to 100% |  | C[C@@H](F)C(=O)N1CC2(CC2)[C@H](NS(=O)(=O)CF)[C@@H]1Cc1cc(F)cc(-c2cccc(F)c2)c1F [Compound 394]
10 to 100 nM | 90 to 100% |  | CS(=O)(=O)N[C@@H]1[C@H](Cc2cccc(-c3ccccc3)c2)N(C(=O)[C@H](O)CF)CC12CC2 [Compound 62, N-((6S,7S)-6-([1,1′-biphenyl]-3-ylmethyl)-5-((S)-3-fluoro-2-hydroxypropanoyl)-5-azaspiro[2.4]heptan-7-yl)methanesulfonamide]
1 to 10 nM | 90 to 100% |  | CS(=O)(=O)N[C@@H]1[C@H](Cc2cccc(-c3cc(F)cc(F)c3)c2F)N(C(=O)[C@H]2CCO2)CC12CC2 [Compound 39, N-((6S,7S)-5-((R)-oxetane-2-carbonyl)-6-((2,3′,5′-trifluoro-[1,1′-biphenyl]-3-yl)methyl)-5-azaspiro[2.4]heptan-7-yl)methanesulfonamide]
1 to 10 nM | 70 to 80% |  | CC(F)(F)C(=O)N1CC2(CC2)[C@H](NS(=O)(=O)CF)[C@@H]1Cc1cccc(-c2cccc(F)c2)c1F [Compound 179, N-((6S,7S)-6-((2,3′-difluoro-[1,1′-biphenyl]-3-yl)methyl)-5-(2,2-difluoropropanoyl)-5-azaspiro[2.4]heptan-7-yl)-1-fluoromethanesulfonamide]
10 to 100 nM | 90 to 100% |  | CO[C@H](C)CNC(=O)N1CC2(CC2)[C@H](NS(C)(=O)=O)[C@@H]1Cc1cccc(-c2ccccc2)c1F [Compound 324, (6S,7S)-6-((2-fluoro-[1,1′-biphenyl]-3-yl)methyl)-N-((R)-2-methoxypropyl)-7-(methylsulfonamido)-5-azaspiro[2.4]heptane-5-carboxamide]
1 to 10 nM | 90 to 100% |  | O=C(NCC1(F)CC1)N1CC2(CC2)[C@H](NS(=O)(=O)CF)[C@@H]1Cc1cccc(-c2cc(F)cc(F)c2)c1F [Compound 412, (6S,7S)-N-((1-fluorocyclopropyl)methyl)-7-((fluoromethyl)sulfonamido)-6-((2,3′,5′-trifluoro-[1,1′-biphenyl]-3-yl)methyl)-5-azaspiro[2.4]heptane-5-carboxamide]
10 to 100 nM | 90 to 100% |  | CC[C@@H](O)C(=O)N1CC2(CC2)C(NS(C)(=O)=O)C1Cc1cccc(-c2ccccc2)c1 (mixture of isomers) [Compound 37, N-(6-([1,1′-biphenyl]-3-ylmethyl)-5-((R)-2-hydroxybutanoyl)-5-azaspiro[2.4]heptan-7-yl)methanesulfonamide]
